Results reported in ChEMBL document CHEMBL1131730, “Isolation and characterization of an active-site peptide from a sterol methyl transferase with a mechanism-based inhibitor” (Bioorg Med Chem Lett, 1999).

Tests used:
[1] = (§1) Rate of inactivation of sterol methyl transferase from Saccharomyces cerevisiae using mechanism based inhibitor
Saccharomyces cerevisiae = assay: as §1; assay type: organism-based; settings: in vivo

Q: Which Ki [1] does the source give for `CC(C)C(C)CC[C@@H](C)C1CCC2C3=C(CCC21C)C1(C)CCC(O)CC1CC3` (some centres not stated) here?
A: 1100 nM

Q: What about the Ki inact (Saccharomyces cerevisiae) of the same compound?
A: 1.52 min⁻¹
